Source: the NIST ThermoML archive (doi:10.1021/je8003707)
Numbers after ± are expanded uncertainties.

Conditions: 101 kPa, Liquid; for viscosity: Capillary tube (Ostwald / Ubbelohde) method; for mass density: Pycnometric method

SMILES | viscosity (288.15 K) [mPa·s] | mass density (288.15 K) [kg/m3] | viscosity (293.15 K) [mPa·s] | mass density (293.15 K) [kg/m3] | viscosity (298.15 K) [mPa·s] | mass density (298.15 K) [kg/m3] | viscosity (303.15 K) [mPa·s] | mass density (303.15 K) [kg/m3] | viscosity (308.15 K) [mPa·s] | mass density (308.15 K) [kg/m3]
C1CCCCC1 [cyclohexane] | 1.077 ± 0.011 | 783.3 ± 0.3 | 0.984 ± 0.01 | 778.6 ± 0.3 | 0.903 ± 0.01 | 773.9 ± 0.3 | 0.83 ± 0.009 | 769.2 ± 0.3 | 0.764 ± 0.009 | 764.5 ± 0.4
CCCCCCC [heptane] | 0.441 ± 0.007 | 688.1 ± 0.3 | 0.417 ± 0.007 | 683.8 ± 0.3 | 0.396 ± 0.007 | 679.7 ± 0.3 | 0.375 ± 0.007 | 675.4 ± 0.3 | 0.356 ± 0.007 | 671.1 ± 0.3
